# Measurements: patent publication US20240360126A1, “PYRAZOLO[3,4-B]PYRIDINE COMPOUNDS FOR THE TREATMENT OF AUTOIMMUNE DISEASE” (Hoffmann-La Roche Inc., priority 2021, published 2024)
# Target: T1, human TLR8 (Homo sapiens, UniProt Q9NR97)
# T1 construct: host or cells: HEK293 (HEK-Blue hTLR8)
# T1 sequence (Q9NR97 27-1041): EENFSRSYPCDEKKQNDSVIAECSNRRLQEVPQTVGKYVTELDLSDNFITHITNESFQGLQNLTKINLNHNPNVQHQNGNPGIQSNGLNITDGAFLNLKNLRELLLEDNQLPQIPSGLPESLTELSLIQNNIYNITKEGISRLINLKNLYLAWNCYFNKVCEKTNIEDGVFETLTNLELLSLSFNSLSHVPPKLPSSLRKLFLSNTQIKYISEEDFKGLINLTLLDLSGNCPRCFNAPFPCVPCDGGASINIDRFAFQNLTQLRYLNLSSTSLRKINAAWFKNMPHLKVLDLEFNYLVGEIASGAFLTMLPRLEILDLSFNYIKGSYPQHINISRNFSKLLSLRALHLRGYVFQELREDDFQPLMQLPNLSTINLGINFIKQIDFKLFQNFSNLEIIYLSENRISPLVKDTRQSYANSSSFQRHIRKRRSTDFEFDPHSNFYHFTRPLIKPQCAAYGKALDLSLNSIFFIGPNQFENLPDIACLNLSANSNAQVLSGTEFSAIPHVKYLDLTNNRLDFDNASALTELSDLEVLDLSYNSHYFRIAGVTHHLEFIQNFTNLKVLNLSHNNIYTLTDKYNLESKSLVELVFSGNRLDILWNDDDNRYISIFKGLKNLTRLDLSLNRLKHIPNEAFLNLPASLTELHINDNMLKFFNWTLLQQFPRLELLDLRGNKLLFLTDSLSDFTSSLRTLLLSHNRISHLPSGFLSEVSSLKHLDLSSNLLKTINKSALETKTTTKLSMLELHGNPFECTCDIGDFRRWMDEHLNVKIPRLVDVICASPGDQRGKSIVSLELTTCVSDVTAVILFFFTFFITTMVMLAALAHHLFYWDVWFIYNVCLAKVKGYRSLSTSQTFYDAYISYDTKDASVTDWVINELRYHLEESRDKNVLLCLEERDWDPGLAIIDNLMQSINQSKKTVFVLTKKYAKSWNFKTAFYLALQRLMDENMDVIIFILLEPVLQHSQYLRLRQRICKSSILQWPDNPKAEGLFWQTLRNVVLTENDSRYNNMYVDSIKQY
# Test: HEK293-Blue-hTLR-8 cells assay
# Format: cell-based
# Conditions: HEK293-Blue-hTLR8 cells, R848 stimulation, 20 hrs; read-out: HEK/hTLR8 IC50
# Description: A stable HEK293-Blue-hTLR-8 cell line was purchased from InvivoGen (Cat. #: hkb-htlr8, San Diego, California, USA). These cells were originally designed for studying the stimulation of human TLR8 by monitoring the activation of NF-κB. A SEAP (secreted embryonic alkaline phosphatase) reporter gene was placed under the control of the IFN-β minimal promoter fused to five NF-κB and AP-1-binding sites. The SEAP was induced by activating NF-κB and AP-1 via stimulating HEK-Blue hTLR8 cells with TLR8 ligands. Therefore the reporter expression was declined by TLR8 antagonist under the stimulation of a ligand, such as R848, for incubation of 20 hrs. The cell culture supernatant SEAP reporter activity was determined using QUANTT-BlueTv™ kit (Cat. #: rep-qbl, Invivogen, San Diego, Ca, USA) at a wavelength of 640 nm, a detection medium that turns purple or blue in the presence of alkaline phosphatase.
# HEK293-Blue-hTLR8 cells were incubated at a density of 250,000˜450,000 cells/mL in a volume of 170 μL in a 96-well plate in Dulbecco's Modified Eagle's medium (DMEM) containing 4.5 g/L glucose, 50 U/mi penicillin, […] streptomycin, […], 2 mM L-glutamine, 10% (v/v) heat-inactivated fetal bovine serum with addition of 20 μL test compound in a serial dilution in the presence of final DMSO at 1% and 10 μL of 60 μM R848 in above DMEM, perform incubation under 37° C. in a CO2 incubator for 20 hrs. Then 20 μL of the supernatant from each well was incubated with 180 μL Quanti-blue substrate solution at 37° C. for 2 hrs and the absorbance was read at 620-655 nm using a spectrophotometer. The signaling pathway that TLR8 activation leads to downstream NF-κB activation has been widely accepted, and therefore similar reporter assay was modified for evaluating TLR8 antagonist.
row,IC50 [µM],SMILES
1,0.006,"Cc1cc(N2CCC(c3cnc(N4CCNCC4)cc3C)[C@H](C)C2)c2cnn(C)c2n1 (single isomer, unassigned) [Example 20, 1,6-dimethyl-4-[cis-3-methyl-4-(4-methyl-6-piperazin-1-yl-3-pyridyl)-1-piperidyl]pyrazolo[3,4-b]pyridine]"
2,0.003,"Cc1cc(N2CCC(c3cnc(N4CCNCC4)cc3C)[C@H](C)C2)c2cnn(C)c2n1 (single isomer, unassigned) [Example 21, 1,6-dimethyl-4-[trans-3-methyl-4-(4-methyl-6-piperazin-1-yl-3-pyridyl)-1-piperidyl]pyrazolo[3,4-b]pyridine]"
3,0.006,"Cc1cc(N2CCC(c3ncc(N4CCNCC4)nc3C)[C@H](C)C2)c2cnn(C)c2n1 (single isomer, unassigned) [Example 22, 1,6-dimethyl-4-[cis-3-methyl-4-(3-methyl-5-piperazin-1-yl-pyrazin-2-yl)-1-piperidyl]pyrazolo[3,4-b]pyridine]"
4,0.007,"Cc1cc(N2CCC(c3ncc(N4CCNCC4)nc3C)[C@H](C)C2)c2cnn(C)c2n1 (single isomer, unassigned) [Example 23, 1,6-dimethyl-4-[trans-3-methyl-4-(3-methyl-5-piperazin-1-yl-pyrazin-2-yl)-1-piperidyl]pyrazolo[3,4-b]pyridine]"
5,0.005,"Cc1cc(N2CCC(c3ncc(N4CCNCC4)cc3C)[C@H](C)C2)c2cnn(C)c2n1 (single isomer, unassigned) [Example 24, 1,6-dimethyl-4-[cis-3-methyl-4-(3-methyl-5-piperazin-1-yl-2-pyridyl)-1-piperidyl]pyrazolo[3,4-b]pyridine]"
6,0.007,"Cc1cc(N2CCC(c3ncc(N4CCNCC4)cc3C)[C@H](C)C2)c2cnn(C)c2n1 (single isomer, unassigned) [Example 25, 1,6-dimethyl-4-[trans-3-methyl-4-(3-methyl-5-piperazin-1-yl-2-pyridyl)-1-piperidyl]pyrazolo[3,4-b]pyridine]"
7,0.012,"Cc1cc(N2CCC(c3ccc(N4CCNCC4)cc3)CC2)c2cnn(C)c2n1 [Example 1, 1,6-dimethyl-4-[4-(4-piperazin-1-ylphenyl)-1-piperidyl]pyrazolo[3,4-b]pyridine]"
8,0.021,"Cc1cc(N2CCC(c3ccc(N4CCNCC4)cn3)CC2)c2cnn(C)c2n1 [Example 2, 1,6-dimethyl-4-[4-(5-piperazin-1-yl-2-pyridyl)-1-piperidyl]pyrazolo[3,4-b]pyridine]"
9,0.05,"Cc1cc(N2CCC(c3cnc(N4CCNCC4)cn3)CC2)c2cnn(C)c2n1 [Example 3, 1,6-dimethyl-4-[4-(5-piperazin-1-ylpyrazin-2-yl)-1-piperidyl]pyrazolo[3,4-b]pyridine]"
10,0.059,"Cc1cc(N2CCC(c3ncc(N4CCNCC4)cn3)CC2)c2cnn(C)c2n1 [Example 4, 1,6-dimethyl-4-[4-(5-piperazin-1-ylpyrimidin-2-yl)-1-piperidyl]pyrazolo[3,4-b]pyridine]"
11,0.064,"Cc1cc(N2CCNCC2)cnc1C1CCN(c2ccnc3c2cnn3C)CC1 [Example 5, 1-methyl-4-[4-(3-methyl-5-piperazin-1-yl-2-pyridyl)-1-piperidyl]pyrazolo[3,4-b]pyridine]"
12,0.037,"Cc1cc(N2CCNCC2)ncc1C1CCN(c2ccnc3c2cnn3C)CC1 [Example 6, 1-methyl-4-[4-(4-methyl-6-piperazin-1-yl-3-pyridyl)-1-piperidyl]pyrazolo[3,4-b]pyridine]"
13,0.029,"Cc1cc(N2CCC(c3ncc(N4CCNCC4)cc3C)CC2)c2cnn(C)c2n1 [Example 7, 1,6-dimethyl-4-[4-(3-methyl-5-piperazin-1-yl-2-pyridyl)-1-piperidyl]pyrazolo[3,4-b]pyridine]"
14,0.008,"Cc1cc(N2CCC(c3cnc(N4CCNCC4)cc3C)CC2)c2cnn(C)c2n1 [Example 8, 1,6-dimethyl-4-[4-(4-methyl-6-piperazin-1-yl-3-pyridyl)-1-piperidyl]pyrazolo[3,4-b]pyridine]"
15,0.031,"Cc1cc(N2CCC(c3cc(C)c(N4CCNCC4)cn3)CC2)c2cnn(C)c2n1 [Example 9, 1,6-dimethyl-4-[4-(4-methyl-5-piperazin-1-yl-2-pyridyl)-1-piperidyl]pyrazolo[3,4-b]pyridine]"
16,0.013,"Cc1cc(N2CCC(c3ccc(N4CCNCC4)nc3C)CC2)c2cnn(C)c2n1 [Example 10, 1,6-dimethyl-4-[4-(2-methyl-6-piperazin-1-yl-3-pyridyl)-1-piperidyl]pyrazolo[3,4-b]pyridine]"
17,0.042,"Cc1cc(N2CCC(c3cnc(N4CCNCC4)nc3C)CC2)c2cnn(C)c2n1 [Example 11, 1,6-dimethyl-4-[4-(4-methyl-2-piperazin-1-yl-pyrimidin-5-yl)-1-piperidyl]pyrazolo[3,4-b]pyridine]"
18,0.044,"CCc1cc(N2CCNCC2)cnc1C1CCN(c2cc(C)nc3c2cnn3C)CC1 [Example 13, 4-[4-(3-ethyl-5-piperazin-1-yl-2-pyridyl)-1-piperidyl]-1,6-dimethyl-pyrazolo[3,4-b]pyridine]"
19,0.013,"COc1cc(N2CCNCC2)cnc1C1CCN(c2cc(C)nc3c2cnn3C)CC1 [Example 14, 4-[4-(3-methoxy-5-piperazin-1-yl-2-pyridyl)-1-piperidyl]-1,6-dimethyl-pyrazolo[3,4-b]pyridine]"
20,0.047,"Cc1cc(N2CCC(c3ncc(N4CC[C@@H](N)[C@@H](F)C4)cc3C)CC2)c2cnn(C)c2n1 [Example 15, (3S,4R)-1-[6-[1-(1,6-dimethylpyrazolo[3,4-b]pyridin-4-yl)-4-piperidyl]-5-methyl-3-pyridyl]-3-fluoro-piperidin-4-amine]"
21,0.032,"COC[C@H]1CN(c2cnc(C3CCN(c4cc(C)nc5c4cnn5C)CC3)c(C)c2)CCN1 [Example 16, 4-[4-[5-[(3R)-3-(methoxymethyl)piperazin-1-yl]-3-methyl-2-pyridyl]-1-piperidyl]-1,6-dimethyl-pyrazolo[3,4-b]pyridine]"
22,0.039,"CO[C@H]1CN(c2cnc(C3CCN(c4cc(C)nc5c4cnn5C)CC3)c(C)c2)CC[C@@H]1N [Example 17, (3S,4S)-1-[6-[1-(1,6-dimethylpyrazolo[3,4-b]pyridin-4-yl)-4-piperidyl]-5-methyl-3-pyridyl]-3-methoxy-piperidin-4-amine]"
23,0.014,"CO[C@@H]1CN(c2cnc([C@@H]3CCN(c4cc(C)nc5c4cnn5C)C[C@H]3C)c(C)c2)C[C@H]1N [Example 26, (3R,4R)-1-[6-[(3S,4R)-1-(1,6-dimethylpyrazolo[3,4-b]pyridin-4-yl)-3-methyl-4-piperidyl]-5-methyl-3-pyridyl]-4-methoxy-pyrrolidin-3-amine]"
24,0.007,"Cc1cc(N2CC[C@@H](c3ncc(N4CC5(CNCCO5)C4)cc3C)[C@H](C)C2)c2cnn(C)c2n1 [Example 27, 2-[6-[(3S,4R)-1-(1,6-dimethylpyrazolo[3,4-b]pyridin-4-yl)-3-methyl-4-piperidyl]-5-methyl-3-pyridyl]-5-oxa-2,8-diazaspiro[3.5]nonane]"
25,0.002,"Cc1cc(N2CC[C@@H](c3ncc(N4CCOC[C@@H](N)C4)cc3C)[C@H](C)C2)c2cnn(C)c2n1 [Example 28, (6S)-4-[6-[(3S,4R)-1-(1,6-dimethylpyrazolo[3,4-b]pyridin-4-yl)-3-methyl-4-piperidyl]-5-methyl-3-pyridyl]-1,4-oxazepan-6-amine]"
